Measurements as given in US20220162221A1, “Imaging Agents” (UCB Biopharma SRL, priority 2017, published 2022).

Experiments:
D1 receptor [1] = experiment: In vivo potentiation PET imaging with D1 PAM; design: species or system cynomolgus monkeys (Macaca fascicularis); details: FIG. 5, Compound-B 20 mg/kg
Protocol: Two cynomolgus monkeys (Macaca fascicularis) housed at the MPI Research (Mattawan, Mich.), were used as research subjects for the in vivo potentiation PET studies.
Each animal was anesthetized with propofol iv bolus (2.5-5.0 mk/kg) and maintained with propofol iv Continuous Rate Infusion (CRI, 0.1-0.6 mg/kg/min). for at least 30 minutes prior to initiation of Compound-B i.v. dose administration. Several dose levels were administered. […]
Following Compound (−)-Ib administration, arterial blood samples were drawn from the central iliac artery prior to the dosing with Compound (−)-Ib and at 13 time points up to 120 min post-injection of Compound (−)-Ib. All blood samples were collected in anticoagulant tubes and stored on wet ice until quantification for radioactivity by gamma counter, measure of Compound (−)-Ib parent fraction in plasma over time by HPLC and Compound (−)-Ib ex vivo stability in blood.
Reconstructed dynamic brain PET images were transferred and analyzed using the image processing PMOD software package (PMOD Technologies, Zurich, Switzerland). […] Subsequent PET images acquired during drug studies were aligned first to the baseline images and then transformed into the common MR template space using the already calculated transformation from the baseline images. […]

hD1R in SK-N-MC cells = hD1R in SK-N-MC cells (Homo sapiens, UniProt P21728); experiment: cAMP HTRF D1 functional assay; details: for Erel: relative efficacy compared to dopamine maximum response, SK-N-MC cells
Protocol: The reaction was terminated by consecutive additions of 10 μL d2 detection reagent and the cryptate reagent both diluted in lysis buffer. After a period of 60 min at room temperature, changes in HTRF emission ratio were determined and transformed in [cAMP]i using a standard curve.

D1 receptor [2] = experiment: In vivo PET imaging in cynomolgus monkey
Protocol: Experiment was performed in a cynomolgus monkey (Female, body weight 6.02 kg). The monkeys were sedated using intramuscular injection of ketamine and kept anesthetized using a mixture of sevoflurane, oxygen and medical air for the duration of the experiment. A baseline scan was performed following intravenous administration of 141 MBq of (−)-(Ia) at a specific activity of 795 GBq/μmol and PET images of the brain were acquired using the Siemens HRRT PET scanner (Siemens Preclinical Solutions, Knoxville, Tenn.).
(§1) Data were acquired for 123 min and binned into sinograms with the following frame timing: 9×20 sec; 3×1 min; 5×3 min; and 17×6 min. Regions of interest used in this study were caudate nucleus, putamen, cerebellum, frontal cortex, occipital cortex, globus pallidus, midbrain, ventral striatum, thalamus and temporal cortex. Registration parameters were obtained to apply the regions of interests to the PET scan and regional time-activity curves (TACs) were generated. Venous blood samples were withdrawn at 4, 15, 30, 60, 90, 120 minutes after (−)-(Ie) administration for metabolite analysis.

[3] = Metabolite profile by radio-HPLC of venous blood samples; format: in vivo, cynomolgus monkey; details: for metabolites detected (words): venous blood, radio-HPLC
Protocol: as §1
The profile of metabolites of (−)-Ia was determined by radio-HPLC analysis of the venous blood samples collected post-administration at several timepoints. The parent fraction in plasma is 85% at 15 minutes, 60% at 30 minutes and still about 45% at 60 minutes.

human D1R = human D1R (Homo sapiens, UniProt P21728); experiment: Radioligand binding on HEK hD1R membranes with or without D1 PAM; design: expressed in transfected cells; host or cells: HEK cells, transient transfection, pcDNA3.1; membrane preparation
Protocol: Transient transfection of human dopamine D1R was performed with pcDNA3.1 vector in human embryonic kidney cells (HEK hD1R).
The membrane of HEK hD1R cells were used to measure radioligand binding. 48 hours post transfection, cells were pelleted by centrifugation at 1,500 g and 4° C. for 10 min. Pellet was washed once with ice-cold phosphate buffered saline solution (PBS) and centrifuged as described just above. Pellet was homogenized in a buffer containing 15 mM Tris-HCl, 0.3 mM ethylene diamine tetraacetic acid, 1 mM ethylene glycol tetraacetic acid, 2 mM MgCl2 (pH 7.5) and complemented with protease inhibitor cocktail. The homogenate was freeze-thawed twice and equilibrated at 25° C. followed by a 10 min DNAse (10 U/ml) treatment. Subsequently, the solution was centrifuged at 40,000 g and 4° C. for 30 min. Finally, the pellet was resuspended in 20 mM Tris-HCl buffer (pH 7.4) containing 250 mM sucrose and store at −80° C. until D1 radioligand binding assay. […] At the end of the incubation period, the protein-bound radioligand was recovered by filtration through pre-soaked GF/B glass fiber filters. Filters were washed with at least 4 times the assay volume of ice-cold 50 mM Tris-HCl buffer (pH 7.4). […] The filters were dried and the radioactivity determined by liquid scintillation.
Competition/potentiation binding experiments were carried out at constant (−)-(Ic) concentration (1-4 nM) and 10 increasing concentrations of (−)-(Ic) or compound b (10^−10 M to 10^−5 M).

D1 receptor [4] = target: T1, D1 receptor (Macaca mulatta, UniProt O77680); experiment: Autoradiography on NHP brain slices; format: binding
T1 construct: 12 μm brain slices were prepared from fresh frozen NHP brain hemisphere; tissue Motac (Bordeaux, France); host or cells: Macaca mulatta brain sections (caudate putamen)
Protocol: Brain sections from non-human primate (NHP) Macaca mulatta were provided by Motac (Bordeaux, France) where all animal experiments were performed in accordance with european animal use ethical guidance and legislation.
12 μm brain slices were prepared from fresh frozen NHP brain hemisphere and were placed on glass microscopy slide. Autoradiography experiment was performed at room temperature in HBSS HEPES buffer (pH 7.4). NHP brain sections first equilibrated for 30 min before to be incubated for one hour with [^3H]compound in 1% DMSO. Slides were then washed in iced-cold 50 mM Tris-HCl buffer (pH 7.4) for 5 min followed by two washes in iced-cold distilled water. Sections were dried under atmospheric pressure at room temperature. Radioactivity on slice was either measured indirectly after exposure of slides to a phosphor screen, either using a direct counter. In every autoradiography experiments, a [^3H]standard was included for quantification and the NSB was defined as the residual binding of [^3H]compound observed in the presence of 10 μM non-labeled compound.

[5] = Logan reference tissue model, cerebellum as reference
[6] = saturation binding, 10 μM D1 PAM, HEK hD1R membranes (FIG. 3B)

T1 sequence (O77680 whole entry): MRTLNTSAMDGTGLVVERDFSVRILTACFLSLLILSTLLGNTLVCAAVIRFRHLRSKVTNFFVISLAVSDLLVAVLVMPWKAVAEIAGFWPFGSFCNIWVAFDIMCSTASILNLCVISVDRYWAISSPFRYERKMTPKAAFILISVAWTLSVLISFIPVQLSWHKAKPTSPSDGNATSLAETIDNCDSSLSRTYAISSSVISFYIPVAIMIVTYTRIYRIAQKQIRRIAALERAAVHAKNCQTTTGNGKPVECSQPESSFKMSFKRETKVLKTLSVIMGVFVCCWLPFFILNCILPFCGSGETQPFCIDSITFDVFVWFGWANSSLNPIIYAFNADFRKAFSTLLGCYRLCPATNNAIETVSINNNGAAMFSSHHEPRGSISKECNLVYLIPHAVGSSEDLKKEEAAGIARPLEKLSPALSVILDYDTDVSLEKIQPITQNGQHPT
Sequence of hD1R in SK-N-MC cells (P21728 whole entry): as the sequence (O77680 whole entry) above, with I311N counted along it
Sequence of human D1R (P21728 whole entry): as the sequence (O77680 whole entry) above, with I311N counted along it

In the case of `Cc1c(-c2ccc(Oc3nccc4occc34)cc2C[18F])n(C)c(=O)[nH]c1=O` [(−)-(Ib), [^18]-6-(2-(fluoromethyl)-4-(furo[3,2-c]pyridin-4-yloxy)phenyl)-1,5-dimethylpyrimidine-2,4(1H,3H)-dione], the “effect of D1 PAM on tracer binding/uptake in vivo (words)” value (D1 receptor [1]) is reported as “significantly improved binding properties” and the “effect of D1 PAM on tracer binding/uptake in vivo (words)” value (D1 receptor [1]; listed as (−)-Ib) is reported as “increased uptake”.

With `Cc1c(-c2ccc(Oc3nccc4occc34)cc2CF)n(C)c(=O)[nH]c1=O` (single isomer, unassigned) [Compound (−)-(I), 6-(2-(fluoromethyl)-4-(furo[3,2-c]pyridin-4-yloxy)phenyl)-1,5-dimethylpyrimidine-2,4(1H,3H)-dione] the EC50 (hD1R in SK-N-MC cells) was 5.01 nM, the “agonist-like effect on D1 receptor” value (hD1R in SK-N-MC cells; cAMP HTRF) was “D1 partial agonist-like effect” and the Erel (hD1R in SK-N-MC cells) was 53 ± 13%. The Erel (hD1R in SK-N-MC cells; listed as (−)-I) was 53%.

In the case of `Cc1c(-c2ccc(Oc3nccc4occc34)cc2CF)n(C)c(=O)[nH]c1=O` (single isomer, unassigned) [(−)-(Ia), [^11C]-6-(2-(fluoromethyl)-4-(furo[3,2-c]pyridin-4-yloxy)phenyl)-1,5-dimethylpyrimidine-2,4(1H,3H)-dione], the “brain uptake pattern” value (D1 receptor [2]; PET images, summed SUV 33-63 minutes) is reported as “uptake pattern consistent with the reported distribution of D1-like receptors in the brain”.

For `Cc1c(-c2ccc(Oc3nccc4occc34)cc2CF)n([11CH3])c(=O)[nH]c1=O` (single isomer, unassigned) [(−)-(Ia), [^11C]-6-(2-(fluoromethyl)-4-(furo[3,2-c]pyridin-4-yloxy)phenyl)-1,5-dimethylpyrimidine-2,4(1H,3H)-dione], the “peak uptake SUV” value (D1 receptor [2]; 5-10 minutes post-administration, across brain regions, iv) was 3.5-4, the “binding potential (BPND), caudate” value (D1 receptor [2]; [5]) was 0.94 and the “binding potential (BPND), putamen” value (D1 receptor [2]; [5]) was 0.87. For the same compound, the “SUV in caudate and putamen” value (D1 receptor [2]; at 60 minutes) was “about 2”, the SUV in cerebellum (D1 receptor [2]; at 60 minutes) was “about 1” and the “parent fraction in plasma” value ([3]; at 15 minutes) was 85%. The “parent fraction in plasma” value ([3]; at 30 minutes) was 60%, the “parent fraction in plasma” value ([3]; at 60 minutes) was “about 45%” and the “metabolites detected (words)” value ([3]; listed as (Ia)) was “no associated lipophilic metabolite”. The “metabolites detected (words)” value ([3]; listed as (−)-Ia) was “only hydrophilic metabolites unlikely to cross the blood-brain barrier have been detected”.

In the case of “[^3H]-6-(2-(fluoromethyl)-4-(furo[3,2-c]pyridin-4-yloxy)phenyl)-1,5-dimethylpyrimidine-2,4(1H,3H)-dione [(−)-(Ic)]”, the “effect of D1 PAM on radioligand binding” value (human D1R; HEK hD1R membranes (FIG. 3)) is reported as “significantly improved binding properties”, the “potentiation of radioligand binding by D1 PAM” value (human D1R; low nanomolar radioligand concentration (1-4 nM), FIG. 3C) is reported as greater than 50% and the “decrease of KD by D1 PAM” value (human D1R; [6]) is reported as 20%. The “increase of Bmax by D1 PAM” value (human D1R; [6]) was 45%, the “specific binding in the presence of a D1 PAM” value (D1 receptor [4]; NHP brain slices, FIG. 4) was “significantly increased” and the “Total Binding in caudate putamen (words)” value (D1 receptor [4]; NHP brain slices, listed as (Ic)) was “significantly binds in caudate putamen”. For the same compound, the “Total Binding in caudate putamen (words)” value (D1 receptor [4]; NHP brain slices, listed as (−)-Ic) was “significant binding” and the non specific binding (D1 receptor [4]; in the presence of 10 μM compound (I), caudate putamen) was 20%.
